Laboratory results published in patent publication US8183263B2 (priority 2007, dated 2012).

tested on: HCV replicon; experiment: HCV replicon replication assay (NPT level by captured ELISA); assay type: cell-based; details: Hepatitis C virus, 72 h; Huh-7 HCV replicon-containing cells, three days incubation; read-out: Activity (inhibition of HCV replicon replication)
In short: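 Huh-7 cells carrying HCV subgenomic replicon (NS3–NS5B, neo reporter) treated 3 days at 37 °C with 6 concentrations from 10 to 0.03 micromolar in G418-free medium, equal DMSO across wells. Replication measured on day four as NPTII level by in-cell captured ELISA on fixed cells; interferon alpha as positive control.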

Row | SMILES | EC50
1 | CCCCCCc1ccc(Nc2nc(-c3cnc(OC)nc3)cs2)cc1C(F)(F)F [Cmp 113, N-(4-hexyl-3-(trifluoromethyl)phenyl)-4-(2-methoxypyrimidin-5-yl)thiazol-2-amine] | < 1 µM
2 | CC/C=N/N(c1ccc(OCCCCCCCC)cc1)c1nc(-c2cccnc2)cs1 [Cmp 32, (E)-2-(1-(4-(octyloxy)phenyl)-2-propylidenehydrazinyl)-4-(pyridin-3-yl)thiazole] | < 1 µM
3 | Fc1sc(Nc2ccc(CCCCCOC3CCCC3)c(C(F)(F)F)c2)nc1-c1cccnc1 [Cmp 230, N-(4-(5-(cyclopentyloxy)pentyl)-3-(trifluoromethyl)phenyl)-5-fluoro-4-(pyridin-3-yl)thiazol-2-amine] | < 1 µM
4 | CCCCCCCCOc1ccc(Nc2nc(-c3ccncc3)c(F)s2)cc1C(F)(F)F [Cmp 166, 5-fluoro-N-(4-(octyloxy)-3-(trifluoromethyl)phenyl)-4-(pyridin-4-yl)thiazol-2-amine] | < 1 µM
5 | C/C=N/N(c1ccc(OCCCCCCCC)cc1)c1nc(-c2cccnc2)cs1 [Cmp 34, (E)-2-(2-ethylidene-1-(4-(octyloxy)phenyl)hydrazinyl)-4-(pyridin-3-yl)thiazole] | < 1 µM
6 | Fc1sc(Nc2ccc(CCCCOc3ccccc3)c(C(F)(F)F)c2)nc1-c1cccnc1 [Cmp 136, 5-fluoro-N-(4-(4-phenoxybutyl)-3-(trifluoromethyl)phenyl)-4-(pyridin-3-yl)thiazo1-2-amine] | < 1 µM
7 | Cc1ccc(OCCCCc2ccc(Nc3nc(-c4cccnc4)c(F)s3)cc2C(F)(F)F)cc1 [Cmp 116, 5-fluoro-4-(pyridin-3-yl)-N-(4-(4-(p-tolyloxy)butyl)-3-(trifluoromethyl)phenyl)thiazol-2-amine] | < 1 µM
8 | CC(=O)c1cc(Nc2nc(-c3cccnc3)cs2)ccc1Oc1ccc(Cl)cc1 [Cmp 84, 1-(2-(4-chlorophenoxy)-5-(4-(pyridin-3-yl)thiazol-2-ylamino)phenyl)ethanone] | < 1 µM
9 | CCCCCCCCC1Cc2ccc(Nc3nc(-c4cccnc4)cs3)cc2O1 (stereo not drawn) [Cmp 123, N-(2-octyl-2,3-dihydrobenzofuran-6-yl)-4-(pyridin-3-yl)thiazol-2-amine] | < 1 µM
10 | CCCCCCCCOc1ccc(Nc2nc(-c3ccc(F)nc3)c(F)s2)cc1C(F)(F)F [Cmp 175, 5-fluoro-4-(6-fluoropyridin-3-yl)-N-(4-(octyloxy)-3-(trifluoromethyl)phenyl)thiazol-2-amine] | < 1 µM
11 | CCCCCCCCOc1ccc(Nc2nc(-c3ccc4nncn4c3)cs2)cc1C(F)(F)F [Cmp 177, 4-([1,2,4]triazolo[4,3-a]pyridin-6-yl)-N-(4-(octyloxy)-3-(trifluoromethyl)phenyl)thiazol-2-amine] | < 1 µM
12 | Cc1ccc(Nc2nc(-c3cccnc3)cs2)cc1OCC1CCCCC1 [Cmp 38, N-(3-(cyclohexylmethoxy)-4-methylphenyl)-4-(pyridin-3-yl)thiazol-2-amine] | < 1 µM
13 | CCCCCCCCc1cc2cc(Nc3nc(-c4cncc(C#N)c4)cs3)ccc2o1 [Cmp 203, 5-(2-(2-octylbenzofuran-5-ylamino)thiazol-4-yl)nicotinonitrile] | < 1 µM
14 | CCCCCCCCOc1ccc(Nc2nc(-c3ccc(O)c(C(N)=O)c3)c(Cl)s2)cc1C(F)(F)F [Cmp 186, 5-(5-chloro-2-(4-(octyloxy)-3-(trifluoromethyl)phenylamino)thiazol-4-yl)-2-hydroxybenzamide] | < 1 µM
15 | CCCCCCCCc1ccc(Nc2nc(-c3cccnc3)c(F)s2)cc1C(F)(F)F [Cmp 35, 5-fluoro-N-(4-octyl-3-(trifluoromethyl)phenyl)-4-(pyridin-3-yl)thiazol-2-amine] | < 1 µM
16 | Fc1sc(Nc2ccc(OCCCCC3CCCC3)c(C(F)(F)F)c2)nc1-c1cccnc1 [Cmp 190, N-(4-(4-cyclopentylbutoxy)-3-(trifluoromethyl)phenyl)-5-fluoro-4-(pyridin-3-yl)thiazol-2-amine] | < 1 µM
17 | CCCCCCCCOc1cc(Nc2nc(-c3ccc(F)cc3)cs2)ccc1C(F)(F)F [Cmp 75, 4-(4-fluorophenyl)-N-(3-(octyloxy)-4-(trifluoromethyl)phenyl)thiazol-2-amine] | < 1 µM
18 | CCCCCCCCOc1ccc(Nc2nc(-c3cccnc3)cs2)cc1C(=O)OC [Cmp 154, methyl 2-(octyloxy)-5-(4-(pyridin-3-yl)thiazol-2-ylamino)benzoate] | < 1 µM
19 | Cc1ccc(Nc2nc(-c3cccnc3)c(F)s2)cc1OCCOc1ccccc1 [Cmp 58, 5-fluoro-N-(4-methyl-3-(2-phenoxyethoxy)phenyl)-4-(pyridin-3-yl)thiazol-2-amine] | < 1 µM
20 | CCCCCCCCOc1ccc(Nc2nc(-c3cnc4[nH]c(=O)[nH]c4c3)cs2)cc1C(F)(F)F [Cmp 187, 6-(2-(4-(octyloxy)-3-(trifluoromethyl)phenylamino)thiazol-4-yl)-1H-imidazo[4,5-b]pyridin-2(3H)-one] | < 1 µM
21 | COc1ncc(-c2csc(Nc3ccc(Oc4ccc(Cl)cc4)c(C(F)(F)F)c3)n2)cn1 [Cmp 54, N-(4-(4-chlorophenoxy)-3-(trifluoromethyl)phenyl)-4-(2-methoxypyrimidin-5-yl)thiazol-2-amine] | < 1 µM

Row | SMILES | EC50
22 | Fc1ccc(CCCCCc2ccc(Nc3nc(-c4cccnc4)c(F)s3)cc2C(F)(F)F)cc1 [Cmp 217, 5-fluoro-N-(4-(5-(4-fluorophenyl)pentyl)-3-(trifluoromethyl)phenyl)-4-(pyridin-3-yl)thiazol-2-amine] | < 1 µM
23 | Cc1ccc(Nc2nc(-c3ccc(F)cc3)cs2)cc1OCCOc1ccccc1 [Cmp 41] | < 1 µM
24 | FC(F)(F)c1cc(Nc2nc(-c3cccnc3)cs2)ccc1CCCOc1ccc(Cl)cc1 [Cmp 103, N-(4-(3-(4-chlorophenoxy)propyl)-3-(trifluoromethyl)phenyl)-4-(pyridin-3-yl)thiazol-2-amine] | < 1 µM
25 | CCCCCCCCOc1ccc(Nc2nc(-c3cccnc3)c(F)s2)cc1C(C)=O [Cmp 149, 1-(5-(5-fluoro-4-(pyridin-3-yl)thiazol-2-ylamino)-2-(octyloxy)phenyl)ethanone] | < 1 µM
26 | CCCCCCCCc1cc2ccc(Nc3nc(-c4cccnc4)cs3)cc2o1 [Cmp 114, N-(2-octylbenzofuran-6-yl)-4-(pyridin-3-yl)thiazol-2-amine] | < 1 µM
27 | CCCCCOc1cc(Nc2nc(-c3ccc(F)cc3)cs2)ccc1C(F)(F)F [Cmp 76, 4-(4-fluorophenyl)-N-(3-(pentyloxy)-4-(trifluoromethyl)phenyl)thiazol-2-amine] | < 1 µM
28 | CCCC/C=C\CCOc1ccc(Nc2nc(-c3cccnc3)c(F)s2)cc1C(F)(F)F [Cmp 172, (Z)-5-fluoro-N-(4-(oct-3-enyloxy)-3-(trifluoromethyl)phenyl)-4-(pyridin-3-yl)thiazol-2-amine] | < 1 µM
29 | CCCOCCC#Cc1ccc(Nc2nc(-c3cccnc3)c(F)s2)cc1C(F)(F)F [Cmp 222, 5-fluoro-N-(4-(4-propoxybut-1-ynyl)-3-(trifluoromethyl)phenyl)-4-(pyridin-3-yl)thiazol-2-amine] | < 1 µM
30 | CCCCCCCCc1oc2ccc(Nc3nc(-c4cccnc4)cs3)cc2c1Cl [Cmp 183, N-(3-chloro-2-octylbenzofuran-5-yl)-4-(pyridin-3-yl)thiazol-2-amine] | < 1 µM
31 | CCCCCOc1cc(Nc2nc(-c3cccnc3)c(F)s2)ccc1C#N [Cmp 30, -(5-fluoro-4-(pyridin-3-yl)thiazol-2-ylamino)-2-(pentyloxy)benzonitrile] | < 1 µM
32 | CCCCCCCCOc1ccc(Nc2nc(-c3cccnc3)cs2)cc1S(C)(=O)=O [Cmp 151, N-(3-(methylsulfonyl)-4-(octyloxy)phenyl)-4-(pyridin-3-yl)thiazol-2-amine] | < 1 µM
33 | CCCCCOc1cc(Nc2nc(-c3cccnc3)cs2)ccc1C(F)(F)F [Cmp 69, N-(3-(pentyloxy)-4-(trifluoromethyl)phenyl)-4-(pyridin-3-yl)thiazol-2-amine] | < 1 µM
34 | CCCCCOCCCc1ccc(Nc2nc(-c3cccnc3)c(F)s2)cc1C(F)(F)F [Cmp 220, 5-fluoro-N-(4-(3-(pentyloxy)propyl)-3-(trifluoromethyl)phenyl)-4-(pyridin-3-yl)thiazol-2-amine] | < 1 µM
35 | CCCCCCCCc1ccc(Nc2nc(-c3ccc[n+](O)c3)c(F)s2)cc1 [Cmp 39, 5-fluoro-N-(4-octylphenyl)-4-(pyridine-1-oxide-3-yl)thiazol-2-amine] | < 1 µM
36 | CCCCCCCCC1Cc2ccc(Nc3nc(-c4ccc(C)nc4)cs3)cc2O1 (stereo not drawn) [Cmp 124, 4-(6-methylpyridin-3-yl)-N-(2-octyl-2,3-dihydrobenzofuran-6-yl)thiazol-2-amine] | < 1 µM
37 | Cc1ccc(CCCCOc2cc(Nc3nc(-c4cccnc4)cs3)ccc2C(F)(F)F)cc1 [Cmp 125, 4-(pyridin-3-yl)-N-(3-(4-p-tolylbutoxy)-4-(trifluoromethyl)phenyl)thiazol-2-amine] | < 1 µM
38 | CCc1ccc(Oc2ccc(Nc3nc(-c4cccnc4)cs3)cc2C(F)(F)F)cc1 [Cmp 49, N-(4-(4-ethylphenoxy)-3-(trifluoromethyl)phenyl)-4-(pyridin-3-yl)thiazol-2-amine] | < 1 µM
39 | CCCCCCCCOc1cc(Nc2nc(-c3cccnc3)cs2)ccc1C [Cmp 25, N-(4-methyl-3-(octyloxy)phenyl)-4-(pyridin-3-yl)thiazol-2-amine] | < 1 µM
40 | CCCCCCCCc1ccc(Nc2nc(-c3ccc(O)c(C(N)=O)c3)c(Cl)s2)cc1C(F)(F)F [Cmp 185, 5-(5-chloro-2-(4-octyl-3-(trifluoromethyl)phenylamino)thiazol-4-yl)-2-hydroxybenzamide] | < 1 µM
41 | CCCCCCCCOc1cc(Nc2nc(-c3cccnc3)c(F)s2)ccc1C(F)(F)F [Cmp 78, 5-fluoro-N-(3-(octyloxy)-4-(trifluoromethyl)phenyl)-4-(pyridin-3-yl)thiazol-2-amine] | < 1 µM

same assay, conditions: Hepatitis C virus, Huh-7, 72 h, read-out: Activity (inhibition of HCV replicon replication)

Row | SMILES | EC50
42 | CCCCCCCCc1ccc(Nc2nc(-c3ccc(OP(=O)(OC)OC)nc3)cs2)cc1C(F)(F)F [Cmp 134, dimethyl 5-(2-(4-octyl-3-(trifluoromethyl)phenylamino)thiazol-4-yl)pyridin-2-yl phosphate] | < 1 µM
